Experimental data: patent publication US10010539B2, “Pyrazole, triazole and tetrazole orexin receptor antagonists” (MERCK SHARP & DOHME CORP., priority 2014, dated 2018)

Key:
human orexin-2 receptor = human orexin-2 receptor (Homo sapiens (Human), UniProt O43614); assay: FLIPR Ca2+ Flux Assay, orexin-2 receptor (hOX2R FLIPR); assay type: cell-based; settings: CHO cells expressing the human orexin-2 receptor; agonist 70 pM Ala-6,12 human orexin-A
Description: (§1) The utility of the compounds in accordance with the present invention as orexin receptor OX1R and/or OX2R antagonists may be readily determined without undue experimentation by methodology well known in the art, including the “FLIPR Ca^2+ Flux Assay” (Okumura et al., Biochem. Biophys. Res. Comm. 280:976-981, 2001). In a typical experiment the OX1 and OX2 receptor antagonistic activity of the compounds of the present invention was determined in accordance with the following experimental method. For intracellular calcium measurements, Chinese hamster ovary (CHO) cells expressing the rat orexin-1 receptor or the human orexin-2 receptor, are grown in Iscove's modified DMEM containing 2 mM L-glutamine, […], 1% hypoxanthine-thymidine supplement, 100 U/ml penicillin, 100 μg/ml streptomycin and 10% heat-inactivated fetal calf serum (FCS). The cells are seeded at 20,000 cells/well into Becton-Dickinson black 384-well clear bottom sterile plates coated with poly-D-lysine. All reagents were from GIBCO-Invitrogen Corp. The seeded plates are incubated overnight at 37° C. and 5% CO2. Ala-6,12 human orexin-A as the agonist is prepared as a 1 mM stock solution in 1% bovine serum albumin (BSA) and diluted in assay buffer (HBSS containing 20 mM HEPES, 0.1% BSA and 2.5 mM probenecid, pH7.4) for use in the assay at a final concentration of 70 pM. Test compounds are prepared as 10 mM stock solution in DMSO, then diluted in 384-well plates, first in DMSO, then assay buffer. On the day of the assay, cells are washed 3 times with 100 μl assay buffer and then incubated for 60 min (37° C., 5% CO2) in 60 μl assay buffer containing 1 μM Fluo-4AM ester, 0.02% pluronic acid, and 1% BSA. The dye loading solution is then aspirated and cells are washed 3 times with 100 μl assay buffer. 30 μl of that same buffer is left in each well. Within the Fluorescent Imaging Plate Reader (FLIPR, Molecular Devices), test compounds are added to the plate in a volume of 25 μl, incubated for 5 min and finally 25 μl of agonist is added. Fluorescence is measured for each well at 1 second intervals for 5 minutes and the height of each fluorescence peak is compared to the height of the fluorescence peak induced by 70 pM Ala-6,12 orexin-A with buffer in place of antagonist. For each antagonist, IC50 value (the concentration of compound needed to inhibit 50% of the agonist response) is determined. Alternatively, compound potency can be assessed by a radioligand binding assay (described in Bergman et. al. Bioorg. Med. Chem. Lett. 2008, 18, 1425-1430) in which the inhibition constant (Ki) is determined in membranes prepared from CHO cells expressing either the OX1 or OX2 receptor. The intrinsic orexin receptor antagonist activity of a compound which may be used in the present invention may be determined by these assays.

[1] = target: hOXIR (orexin-1 receptor) (Homo sapiens, UniProt O43613); assay: FLIPR Ca2+ Flux Assay, orexin-1 receptor (hOXIR FLIPR); assay type: cell-based; settings: CHO cells expressing the orexin-1 receptor (method text: rat; table head: hOXIR); agonist 70 pM Ala-6,12 human orexin-A
Description: as §1

human orexin-2 receptor, sequence (O43614 whole entry): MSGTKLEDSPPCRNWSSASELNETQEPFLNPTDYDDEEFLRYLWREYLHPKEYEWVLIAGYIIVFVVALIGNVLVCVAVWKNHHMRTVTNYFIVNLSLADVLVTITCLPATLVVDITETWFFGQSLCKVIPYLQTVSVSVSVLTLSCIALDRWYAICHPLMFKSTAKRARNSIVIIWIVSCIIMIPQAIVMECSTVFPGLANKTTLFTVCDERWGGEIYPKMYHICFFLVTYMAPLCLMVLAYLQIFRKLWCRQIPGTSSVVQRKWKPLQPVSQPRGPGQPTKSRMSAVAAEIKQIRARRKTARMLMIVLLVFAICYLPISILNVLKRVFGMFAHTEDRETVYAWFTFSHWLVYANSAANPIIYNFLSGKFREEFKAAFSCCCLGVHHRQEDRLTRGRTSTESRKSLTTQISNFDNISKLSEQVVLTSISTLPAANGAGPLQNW

Row | Structure (SMILES) | IC50 (human orexin-2 receptor) | IC50 [1]
1 | COC(=O)c1ccccc1C(=O)N1C[C@H](n2ncc(C(C)(C)O)n2)CC[C@H]1C [Example 20, Methyl 2-((2R,5R)-5-(4-(2-hydroxypropan-2-yl)-2H-1,2,3-triazol-2-yl)-2-methylpiperidine-1-carbonyl)benzoate] | 24.6 nM | > 10000 nM
2 | C[C@@H]1CC[C@@H](n2ncc(C(C)(C)O)n2)CN1C(=O)c1ccccc1C1(C#N)CC1 [Example 1, 1-(2-((2R,5R)-5-(4-(2-Hydroxypropan-2-yl)-2H-1,2,3-triazol-2-yl)-2-methylpiperidine-1-carbonyl)phenyl)cyclopropanecarbonitrile] | 13.8 nM | 1160 nM
3 | CCCc1ccccc1C(=O)N1C[C@H](n2cc(C(C)(C)O)cn2)CC[C@H]1C [Example 76, 2-(1-{(3R,6R)-6-Methyl-1-[(2-propylphenyl)carbonyl]piperidin-3-yl}-1H-pyrazol-4-yl)propan-2-ol] | 52.3 nM | > 10000 nM
4 | COc1ccc(C(=O)N2C[C@H](n3cc(C(C)(C)O)cn3)CC[C@H]2C)c(C2CCC2)n1 [Example 100, 2-(1-{(3R,6R)-1-[(2-Cyclobutyl-6-methoxypyridin-3-yl)carbonyl]-6-methylpiperidin-3-yl}-1H-pyrazol-4-yl)propan-2-ol] | 60.8 nM | > 10000 nM
5 | C[C@@H]1CC[C@@H](n2ncc(C(C)(C)O)n2)CN1C(=O)c1cccnc1C1CC1 [Example 60, 2-(2-{(3R,6R)-1-[(2-Cyclopropylpyridin-3-yl)carbonyl]-6-methylpiperidin-3-yl}-2H-1,2,3-triazol-4-yl)propan-2-ol] | 608 nM | > 10000 nM
6 | C[C@@H]1CC[C@@H](n2cc([C@@](C)(O)C(F)(F)F)cn2)CN1C(=O)c1ccccc1-n1nccn1 [Example 105, (2R)-1,1,1-Trifluoro-2-{1-[(3R,6R)-6-methyl-1-{[2-(2H-1,2,3-triazol-2-yl)phenyl]carbonyl}piperidin-3-yl]-1H-pyrazol-4-yl}propan-2-ol] | 9.4 nM | 2730 nM
7 | C[C@@H]1CC[C@@H](n2ncc(C(C)(C)O)n2)CN1C(=O)c1ccsc1-n1nccn1 [Example 33, 2-{2-[(3R,6R)-6-methyl-1-{[2-(2H-1,2,3-triazol-2-yl)thiophen-3-yl]carbonyl}piperidin-3-yl]-2H-1,2,3-triazol-4-yl}propan-2-ol] | 18.4 nM | 2560 nM
8 | C[C@@H]1CC[C@@H](n2cc(C(C)(C)O)cn2)CN1C(=O)c1ccccc1-n1nccn1 [Example 75, 2-{1-[(3R,6R)-6-Methyl-1-{[2-(2H-1,2,3-triazol-2-yl)phenyl]carbonyl}piperidin-3-yl]-1H-pyrazol-4-yl}propan-2-ol] | 21.6 nM | > 10000 nM
9 | C[C@@H]1CC[C@@H](n2cc(C(C)(C)O)cn2)CN1C(=O)c1ccccc1SC(F)(F)F [Example 88, 2-{1-[(3R,6R)-6-Methyl-1-({2-[(trifluoromethyl)sulfanyl]phenyl}carbonyl)piperidin-3-yl]-1H-pyrazol-4-yl}propan-2-ol] | 15.2 nM | 7930 nM
10 | CCOc1ncccc1C(=O)N1C[C@H](n2cc(C(C)(C)O)cn2)CC[C@H]1C [Example 89, 2-(1-{(3R,6R)-1-[(2-Ethoxypyridin-3-yl)carbonyl]-6-methylpiperidin-3-yl}-1H-pyrazol-4-yl)propan-2-ol] | 283 nM | > 10000 nM
11 | C[C@@H]1CC[C@@H](n2ncc(C(C)(C)O)n2)CN1C(=O)c1ccccc1-n1ncnn1 [Example 34, 2-{2-[(3R,6R)-6-methyl-1-{[2-(2H-tetrazol-2-yl)phenyl]carbonyl}piperidin-3-yl]-2H-1,2,3-triazol-4-yl}propan-2-ol] | 36.8 nM | > 10000 nM
12 | Cc1nn([C@@H]2CC[C@@H](C)N(C(=O)c3ccccc3OC(F)(F)F)C2)nc1C(C)(C)O [Example 67, 2-{5-Methyl-2-[(3R,6R)-6-methyl-1-{[2-(trifluoromethoxy)phenyl]carbonyl}piperidin-3-yl]-2H-1,2,3-triazol-4-yl}propan-2-ol] | 10.1 nM | 1150 nM
13 | CCOc1ccccc1C(=O)N1C[C@H](n2nc(C)c(C(C)(C)O)n2)CC[C@H]1C [Example 69, 2-(2-{(3R,6R)-1-[(2-Ethoxyphenyl)carbonyl]-6-methylpiperidin-3-yl}-5-methyl-2H-1,2,3-triazol-4-yl)propan-2-ol] | 7.9 nM | 1950 nM
14 | COC(=O)c1cnn([C@@H]2CC[C@@H](C)N(C(=O)c3ccccc3-n3nccn3)C2)n1 [Example 24, Methyl 2-((3R,6R)-1-(2-(2H-1,2,3-triazol-2-yl)benzoyl)-6-methylpiperidin-3-yl)-2H-1,2,3-triazole-4-carboxylate] | 512 nM | > 10000 nM
15 | C[C@@H]1CC[C@@H](n2ncc(C(C)(C)O)n2)CN1C(=O)c1ccc(F)cc1-n1nccn1 [Example 39, 2-{2-[(3R,6R)-1-{[4-fluoro-2-(2H-1,2,3-triazol-2-yl)phenyl]carbonyl}-6-methylpiperidin-3-yl]-2H-1,2,3-triazol-4-yl}propan-2-ol] | 27.1 nM | > 10000 nM
16 | Cc1ccc(C(=O)N2C[C@H](n3ncc(C(C)(C)O)n3)CC[C@H]2C)c(-n2nccn2)n1 [Example 55, 2-{2-[(3R,6R)-6-methyl-1-{[6-methyl-2-(2H-1,2,3-triazol-2-yl)pyridin-3-yl]carbonyl}piperidin-3-yl]-2H-1,2,3-triazol-4-yl}propan-2-ol] | 222 nM | > 10000 nM
17 | Cc1noc(-c2ccc(F)cc2C(=O)N2C[C@H](n3ncc(C(C)(C)O)n3)CC[C@H]2C)n1 [Example 35, 2-{2-[(3R,6R)-1-{[5-fluoro-2-(3-methyl-1,2,4-oxadiazol-5-yl)phenyl]carbonyl}-6-methylpiperidin-3-yl]-2H-1,2,3-triazol-4-yl}propan-2-ol] | 593 nM | > 10000 nM
18 | Cc1nc(-c2ccccc2C(=O)N2C[C@H](n3ncc(C(C)(C)O)n3)CC[C@H]2C)no1 [Example 47, 2-{2-[(3R,6R)-6-methyl-1-{[2-(5-methyl-1,2,4-oxadiazol-3-yl)phenyl]carbonyl}piperidin-3-yl]-2H-1,2,3-triazol-4-yl}propan-2-ol] | 45.7 nM | > 10000 nM
19 | C[C@@H]1CC[C@@H](n2cc(C(C)(C)O)cn2)CN1C(=O)c1ccc(F)cc1-n1nccn1 [Example 91, 2-{1-[(3R,6R)-1-{[4-Fluoro-2-(2H-1,2,3-triazol-2-yl)phenyl]carbonyl}-6-methylpiperidin-3-yl]-1H-pyrazol-4-yl}propan-2-ol] | 18.8 nM | > 10000 nM
20 | C[C@@H]1CC[C@@H](n2cc(C(C)(C)O)cn2)CN1C(=O)c1cccnc1-n1cccn1 [Example 90, 2-{1-[(3R,6R)-6-Methyl-1-{[2-(1H-pyrazol-1-yl)pyridin-3-yl]carbonyl}piperidin-3-yl]-1H-pyrazol-4-yl}propan-2-ol] | 33.6 nM | > 10000 nM
21 | C[C@@H]1CC[C@@H](n2ncc(C(C)(C)O)n2)CN1C(=O)c1cccnc1OC(F)F [Example 7, (2-(Difluoromethoxy)pyridin-3-yl)((2R,5R)-5-(4-(2-hydroxypropan-2-yl)-2H-1,2,3-triazol-2-yl)-2-methylpiperidin-1-yl)methanone] | 51.7 nM | > 10000 nM
22 | C[C@@H]1CC[C@@H](n2ncc(C(C)(C)O)n2)CN1C(=O)c1cccnc1-n1nccn1 [Example 59, 2-{2-[(3R,6R)-6-Methyl-1-{[2-(2H-1,2,3-triazol-2-yl)pyridin-3-yl]carbonyl}piperidin-3-yl]-2H-1,2,3-triazol-4-yl}propan-2-ol] | 400 nM | > 10000 nM
